Patent US10342767B2, “Therapy for kinase-dependent malignancies” (CHILDREN'S HOSPITAL MEDICAL CENTER, priority 2011, dated 2019)
“Also recorded” adds a separate entry of the source. Counter-ions that a name gives are not always drawn.

Assays:
AU565 = AU565 dose response / cell survival (WST assay); format: cell-based; conditions: neuregulin 1-NRG1
Procedure: (§1) Cell-proliferation assay. […] The cells were incubated for 60 h.
(§2) Time at 0 hours represents the level of expression without TKI+/−GF. Note that the growth factors induce higher expression of c-FOS in all cell lines and DUSP1 in RT4 at 0 hours, while the addition of both TKI and growth factors induced both c-FOS and DUSP1. […] Note inhibition of c-FOS and DUSP1 is sufficient to kill AU565 cells, while their inhibition in RT4 and SKMEL28 cells restored the TKI sensitivity in the presence of growth factors.

RT4 = RT4 dose response / cell survival (WST assay); format: cell-based; conditions: EGF
Procedure: as §1, §2

Dusp1 = experiment: In vitro BCI-resistance screening of randomly mutagenized Dusp1 in BaF3-BA cells; format: cell-based, mouse
Procedure: To determine the relevant target of BCI more conclusively, we performed in vitro drug-resistant screening to select for BCI-resistant mutations in Dusp1. BaF3-BA cells transfected with an expression library of randomly mutagenized Dusp1 construct were used for the selection of mutations conferring resistance to different concentrations of BCI (FIG. 19D). […] 27 clones that emerged in 1.5 μM of BCI were randomly selected and further analyzed. Dose-response analysis confirmed their resistance to BCI (FIG. 19F). Sequencing of the Dusp1 gene in these clones identified four different substitution mutations (E19R, C24G, V83G, and E112R) and two deletion mutations at the N terminus (Δ2-8 and Δ2-28; FIG. 19G). Because most resistant clones carried two or more mutations, we generated clones with individual mutations for further analysis. […] Furthermore, an unbiased docking of BCI using a structural model of the Dusp1 rhodanese domain identified the putative site to which BCI binds, with a predicted free energy of ΔG=−7.63 (FIG. 18E).
Random mutagenesis and screening of Dusp1 mutants. A Gateway entry clone containing mouse Dusp1 complementary DNA was purchased from the Harvard PalsmiD repository (cat. #MmCD00312825). The Dusp1 coding region was transferred into the retroviral gateway vector pMSCV-Ires-GFP.GW59 by recombination cloning. […] Mutants isolated in the screen were engineered into the pMSCV-Dusp1-Ires-GFP vector, using the QuikChange II XL Site-Directed Mutagenesis Kit (Agilent). The sequence of each point mutation was confirmed by sequence analysis.

phospho-p38, p-JNK = experiment: Immunoblot of MAPK signaling in BaF3 and BaF3-BA cells; format: cell-based, mouse; conditions: with or without IL-3
Procedure: Western blotting. 4-6 million cells were collected, and whole-cell extracts were prepared using lysis buffer supplemented with a protease-inhibitor cocktail (Roche) and phosphatase-inhibitor cocktail 2 (Sigma-Aldrich), as described previously (Azam, M., Seeliger, M. A., Gray, N. S., Kuriyan, J. & Daley, G. Q. Activation of tyrosine kinases by mutation of the gatekeeper threonine. Nat. Struct. Mol. Biol. 15, 1109-1118 (2008)). The proteins were resolved on 10% SDS-PAGE gels and transferred to nitrocellulose membranes (Bio-Rad). Membranes were blocked in TBST with 5% nonfat milk and probed with appropriate antibodies as indicated. Densitometry was carried out using ImageJ software.

HCC827 cells = experiment: HCC827 cell survival (WST assay); conditions: DFC, BCI and erlotinib alone and in combination
phospho-p38 = experiment: Pharmacodynamic phospho-p38 analysis in leukemic mice; format: in vivo, mouse; conditions: peripheral blood mononuclear cells, 6 h after BCI 10 mg/kg i.p.
Procedure: Pharmacodynamic analysis of Dusp1 and c-Fos targets. Phospho-p38 analysis. Three leukemic mice (8-12 weeks old), which had received transplants of BCR-ABL-expressing Kit+ cells, were injected with BCI (10 mg/kg) by intraperitoneal injection 4 weeks after transplantation. Phospho-p38 levels were quantified in peripheral blood MNCs using the Phosflow kit (BD Biosciences), according to the supplier's instructions. In brief, blood was collected from each mouse before and 6 hours after drug injection. Mononuclear cells were isolated by RBC depletion: RBCs were lysed twice using 4 ml Pharmlyse solution (BD Biosciences) per 100 μl of peripheral blood by mixing and incubated on ice for 5 min. After the second lysis step, cell pellets were washed with 1 ml 2% BSA in PBS followed by fixation using 100 μl of fixation and permeabilization solutions (BD Biosciences) for 20 min at 4° C. in the dark. The pellets were washed with 1 ml of 1×BD Perm/wash buffer. After fixation, the cells were blocked using 300 μl 2% BSA in Perm/wash buffer (BD Biosciences) at room temperature for 20 min. […] Data were acquired by FACS on Fortessa instrument, and the data were analyzed by FlowJo software. The mean fluorescence intensity (MFI) of the IgG control was deducted from the MFI of the experimental samples. […] Quantitative gene-expression analysis of target genes. […]

[1] = mouse, in vivo; cited from earlier work
BaF3-BA cells = experiment: Cell proliferation/survival assay of BaF3 cells expressing BCR-ABL (WST-1); format: cell-based, mouse; conditions: inhibitor 500 nM
EGFR = conditions: NSCLC patients with activating EGFR mutations; cited from earlier work
[2] = system: Fos, Dusp1, and Zfp36 expression; experiment: Real-time qPCR of Fos, Dusp1 and Zfp36 in BaF3-BA cells; format: cell-based, mouse
Procedure: Real-time qPCR analysis. Candidate genes picked by microarray analysis were validated by real time qPCR. Total RNA was isolated as described above. The RNA was first subjected to DNase treatment using DNA-free DNase kit (Ambion, Life technologies). 2 μg of total RNA was converted to cDNA with Superscript III first-strand synthesis kit (Life technologies). qPCR reactions were performed with the human gene-specific primers using the SYBR green method and using a Mastercycler RealPlex2 instrument (Eppendorf). All PCR reactions were performed in triplicate and the real-time data was normalized to β-actin expression.

K562 = experiment: Survival of K562 cells treated with imatinib with or without erythropoietin; format: cell-based, human; conditions: erythropoietin treatment
[3] = system: CML CD34+ cells from patient CP4; experiment: Mouse model of CML with patient-derived CD34+ cells; format: in vivo, human; conditions: treatment for 3 weeks; imatinib 75 mg/kg, DFC and BCI 10 mg/kg twice daily i.p.
Procedure: To extend these findings to human cells, we tested the effect of c-FOS and DUSP1 inhibition on the survival of primary CML patient samples (Table 2).
Mouse models of CML with patient-derived cells. 3 million CD34+ cells from CML patient CP4 (described in Table 1) were transplanted into sublethally irradiated 8-week-old NSG mice. 2 weeks after transplantation, leukemic engraftment in bone marrow was determined by FACS using mouse and human specific antibodies against CD45. […] Drugs were diluted in PBS (vehicle) and administered by intraperitoneal injection twice daily. […]

[4] = system: CML patient cells (CP1, CP4); experiment: LTC-IC assay, CML patient samples; format: cell-based, human
Procedure: LTC-IC assay. The LTC-IC assay was performed according to the instruction manual of StemCell Technologies. […] After 24 h, the cells were washed in human long-term culture medium (HLTM; MyeloCult H5100 media containing 1 μM hydrocortisone) and were plated on irradiated MS-5 stromal cells. Cultures were maintained for 5 weeks with weekly half-medium changes. Cells were then harvested, counted, and transferred to methylcellulose-containing media (MethoCult Express, StemCell Technologies) for colony-forming assays. At the end of week 5, adherent and nonadherent cells were isolated and plated in methylcellulose (METHOCULT H4434 classic, stem cell technology) for CFU analysis in triplicate. Plates were incubated at 37° C., and colonies were scored 2 weeks after plating.

SKMEL28 = SKMEL28 dose response / cell survival (WST assay); format: cell-based; conditions: HGF
Procedure: as §1, §2

CS(=O)(=O)CCNCc1ccc(-c2ccc3ncnc(Nc4ccc(OCc5cccc(F)c5)c(Cl)c4)c3c2)o1 [lapatinib]
response to lapatinib in the presence of growth factor (AU565): resistance
response to lapatinib in the presence of growth factor (RT4): resistance

O=C1/C(=C/c2ccccc2)C(NC2CCCCC2)c2ccccc21 (stereo not shown) [BCI, (E)-2-benzylidene-3-(cyclohexylamino)-2,3-dihydro-1H-inden-1-one]
frequency of resistant clones (Dusp1; 1 μM BCI): 1,200 clones per million cells
frequency of resistant clones (Dusp1; 1.5 μM BCI): 27 clones per million cells
frequency of resistant clones (Dusp1; 2 μM of BCI): did not yield any resistant clones
phospho-JNK (phospho-p38, p-JNK; BaF3-BA cells): decreased
phospho-p38 levels (phospho-p38, p-JNK; BaF3 and BaF3-BA cells): enhanced; also recorded: increased
cell survival (HCC827 cells): sensitized the cells for erlotinib
increase in phospho-p38 levels (phospho-p38): 4-8 fold

COc1cc(/C=C/C(=O)C(=Cc2ccc(F)c(F)c2)C(=O)/C=C/c2ccc(O)c(OC)c2)ccc1O [DFC, difluorinated curcumin]
pharmacokinetics relative to curcumin [1]: superior pharmacokinetics

Oc1ccc(-c2nc(-c3ccncc3)c(-c3ccc(F)cc3)[nH]2)cc1 [SB202190]
imatinib resistance conferred by inhibitor (BaF3-BA cells): conferred imatinib resistance

C#Cc1cccc(Nc2ncnc3cc(OCCOC)c(OCCOC)cc23)c1 [erlotinib]
response rate (EGFR): approximately 70%

Cc1ccc(NC(=O)c2ccc(CN3CCN(C)CC3)cc2)cc1Nc1nccc(-c2cccnc2)n1 [Imatinib, Imatinib mesylate]
expression of Fos, Dusp1 and Zfp36 ([2]; imatinib alone): downregulated
higher expression of Fos, Dusp1 and Zfp36 as compared to BaF3-BA plus imatinib ([2]; imatinib plus growth factor (IL-3)): 4-5 fold
response to imatinib with erythropoietin (K562): conferred imatinib resistance
effect on human leukemic cells in bone marrow [3]: ineffective
LTC-IC activity as compared to vehicle ([4]; CP1 cells): increased
LTC-IC activity as compared to vehicle ([4]; sample CP4): significant decrease

CCCS(=O)(=O)Nc1ccc(F)c(C(=O)c2c[nH]c3ncc(Cl)cc23)c1F [PLX4720]
response to PLX4720 in the presence of growth factor (SKMEL28): resistance
